Bounds are passed on as bounds.

By EC50 is commonly meant the concentration needed to bring the measured effect to its halfway point.

In this test the target is T1, GCase (Homo sapiens, UniProt P04062).
T1 construct: endogenous in cells; host or cells: HeLa cells
T1 sequence (P04062 40-536): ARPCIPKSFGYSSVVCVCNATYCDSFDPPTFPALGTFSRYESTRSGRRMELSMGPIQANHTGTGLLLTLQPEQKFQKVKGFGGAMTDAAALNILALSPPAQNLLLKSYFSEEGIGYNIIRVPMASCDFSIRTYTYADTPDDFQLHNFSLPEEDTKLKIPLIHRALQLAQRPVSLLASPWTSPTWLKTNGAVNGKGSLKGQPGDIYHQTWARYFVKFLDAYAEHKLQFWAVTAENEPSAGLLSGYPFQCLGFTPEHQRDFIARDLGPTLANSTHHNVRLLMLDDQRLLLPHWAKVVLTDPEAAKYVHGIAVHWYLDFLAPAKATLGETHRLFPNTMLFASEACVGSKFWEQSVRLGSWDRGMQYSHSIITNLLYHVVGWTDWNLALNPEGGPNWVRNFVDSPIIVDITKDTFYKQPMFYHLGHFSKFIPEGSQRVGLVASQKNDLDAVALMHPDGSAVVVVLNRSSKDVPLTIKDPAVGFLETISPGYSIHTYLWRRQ
Put plainly: activation of GCase in a live cell PFB assay in HELA cells. The format is cell-based. The conditions noted are these: activation of GCase, EC50 ranges. As for the experimental part: Exemplary compounds were evaluated for activation of GCase in a live cell PFB assay in HELA cells (essentially as described in Ysselstein et al., “LRRK2 kinase activity regulates lysosomal glucocerebrosidase in neurons derived from Parkinson's disease patients” Nature Communications (2019) 10:5570). […] EC50 ranges: A: <10 μM; B: >10-50 μM; C: >50-100 μM; D: >100 μM.
As for `FC(F)Cn1ncc2ncc(N3CCC4(CCN(c5cc(C(F)(F)F)ccn5)CC4)C3)nc21` [Compound 16, 2-[1-(2,2-difluoroethyl)-1H-pyrazolo[3,4-b]pyrazin-6-yl]-8-[4-(trifluoromethyl)pyridin-2-yl]-2,8-diazaspiro[4.5]decane], the concentration for a half-maximal effect (EC50) was 10 to 50 µM.

In the case of `FC(F)Cn1ncc2ncc(N3CCCC4(C3)CN(c3cnccc3C(F)(F)F)C4)nc21` [Compound 17, 6-[1-(2,2-difluoroethyl)-1H-pyrazolo[3,4-b]pyrazin-6-yl]-2-[4-(trifluoromethyl)pyridin-3-yl]-2,6-diazaspiro[3.5]nonane], the EC50 lay within 10 to 50 µM. Then `FC(F)Cn1ncc2ncc(N3CCCC4(C3)CN(c3ncccc3C(F)(F)F)C4)nc21` [Compound 18, 6-[1-(2,2-difluoroethyl)-1H-pyrazolo[3,4-b]pyrazin-6-yl]-2-[3-(trifluoromethyl)pyridine-2-yl]-2,6-diazaspiro[3.5]nonane], with 10 to 50 µM. Then `FC(F)Cn1ncc2ncc(N3CCCC4(CN(c5ccccc5)C4)C3)nc21` [Compound 19, 6-[1-(2,2-difluoroethyl)-1H-pyrazolo[3,4-b]pyrazin-6-yl]-2-phenyl-2,6-diazaspiro[3.5]nonane], with 10 to 50 µM; and `FC(F)Cn1ncc2ncc(N3CC4(CCCN(c5ccc(C(F)(F)F)nc5)C4)C3)nc21` [Compound 20, 2-[1-(2,2-difluoroethyl)-1H-pyrazolo[3,4-b]pyrazin-6-yl]-6-[6-(trifluoromethyl)pyridin-3-yl]-2,6-diazaspiro[3.5]nonane], with 10 to 50 µM; and `FC(F)Cn1ncc2ncc(N3CC4(CCCN(c5cc(C(F)(F)F)ccn5)C4)C3)nc21` [Compound 21, 2-[1-(2,2-difluoroethyl)-1H-pyrazolo[3,4-b]pyrazin-6-yl]-6-[4-(trifluoromethyl)pyridin-2-yl]-2,6-diazaspiro[3.5]nonane], with 10 to 50 µM. Then `FC(F)Cn1ncc2ncc(N3CCCC4(CC(Oc5ccc(C(F)(F)F)nc5)C4)C3)nc21` (centres unmarked) [Compound 22, 6-[1-(2,2-difluoroethyl)-1H-pyrazolo[3,4-b]pyrazin-6-yl]-2-{[6-(trifluoromethyl)pyridin-3-yl]oxy}-6-azaspiro[3.5]nonane], with 10 to 50 µM. The molecule `FC(F)Cn1ncc2ncc(N3CCCC4(CN(c5cccc(C(F)(F)F)n5)C4)C3)nc21` [Compound 23, 6-[1-(2,2-difluoroethyl)-1H-pyrazolo[3,4-b]pyrazin-6-yl]-2-[6-(trifluoromethyl)pyridin-2-yl]-2,6-diazaspiro[3.5]nonane] had an EC50 of 10 to 50 µM. Molecule `Fc1ccc(F)c(OC2CC3(CCCN(c4cnc5cnn(CC(F)F)c5n4)C3)C2)c1` (centres unmarked) [Compound 24, 6-[1-(2,2-difluoroethyl)-1H-pyrazolo[3,4-b]pyrazin-6-yl]-2-(2,5-difluorophenoxy)-6-azaspiro[3.5]nonane] gave a half-maximal effective concentration (EC50) of 10 to 50 µM.

The molecule `FC(F)Cn1ncc2ncc(N3CC4(CCCN(c5cccc(C(F)(F)F)n5)C4)C3)nc21` [Compound 25, 2-[1-(2,2-difluoroethyl)-1H-pyrazolo[3,4-b]pyrazin-6-yl]-6-[6-(trifluoromethyl)pyridin-2-yl]-2,6-diazaspiro[3.5]nonane] yielded an EC50 of 10 to 50 µM. The figure for `FC(F)Cn1ncc2ncc(N3CCCC4(C3)CN(c3cccnc3C(F)(F)F)C4)nc21` [Compound 26, 6-[1-(2,2-difluoroethyl)-1H-pyrazolo[3,4-b]pyrazin-6-yl]-2-[2-(trifluoromethyl)pyridin-3-yl]-2,6-diazaspiro[3.5]nonane] is 10 to 50 µM.

As to `FC(F)Cn1ncc2ncc(N3CCCC4(CC(Oc5cccc(C(F)(F)F)n5)C4)C3)nc21` (centres unmarked) [Compound 27, 6-[1-(2,2-difluoroethyl)-1H-pyrazolo[3,4-b]pyrazin-6-yl]-2-{[6-(trifluoromethyl)pyridin-2-yl]oxy}-6-azaspiro[3.5]nonane], the EC50 lay within 10 to 50 µM. Then `FC(F)Cn1ncc2ncc(N3CCCC4(CC(Oc5ccc(C(F)(F)F)cn5)C4)C3)nc21` (centres unmarked) [Compound 28, 6-[1-(2,2-difluoroethyl)-1H-pyrazolo[3,4-b]pyrazin-6-yl]-2-{[5-(trifluoromethyl)pyridin-2-yl]oxy}-6-azaspiro[3.5]nonane], with 10 to 50 µM; and `FC(F)Cn1ncc2ncc(N3CCCC4(CC(Oc5cc(C(F)(F)F)ccn5)C4)C3)nc21` (centres unmarked) [Compound 29, 6-[1-(2,2-difluoroethyl)-1H-pyrazolo[3,4-b]pyrazin-6-yl]-2-{[4-(trifluoromethyl)pyridin-2-yl]oxy}-6-azaspiro[3.5]nonane], with 10 to 50 µM; and `Fc1ccc(F)c(OC2CC3(CCCN(c4cnc5cnn(CC(F)(F)F)c5n4)C3)C2)c1` (centres unmarked) [Compound 30, 2-(2,5-difluorophenoxy)-6-[1-(2,2,2-trifluoroethyl)-1H-pyrazolo[3,4-b]pyrazin-6-yl]-6-azaspiro[3.5]nonane], with 10 to 50 µM. The figure for `Fc1cc(F)cc(OC2CC3(CCCN(c4cnc5cnn(CC(F)F)c5n4)C3)C2)c1` (centres unmarked) [Compound 31, 6-[1-(2,2-difluoroethyl)-1H-pyrazolo[3,4-b]pyrazin-6-yl]-2-(3,5-difluorophenoxy)-6-azaspiro[3.5]nonane] is 10 to 50 µM; for `FC(F)Cn1ncc2ncc(N3CCCC4(CC(Oc5ncccc5C(F)(F)F)C4)C3)nc21` (centres unmarked) [Compound 32, 6-[1-(2,2-difluoroethyl)-1H-pyrazolo[3,4-b]pyrazin-6-yl]-2-{[3-(trifluoromethyl)pyridin-2-yl]oxy}-6-azaspiro[3.5]nonane] it is 10 to 50 µM; for `Fc1cc(F)cc(OC2CC3(CCCN(c4cnc5cnn(CC(F)(F)F)c5n4)C3)C2)c1` (centres unmarked) [Compound 33, 2-(3,5-difluorophenoxy)-6-[1-(2,2,2-trifluoroethyl)-1H-pyrazolo[3,4-b]pyrazin-6-yl]-6-azaspiro[3.5]nonane] it is 10 to 50 µM. Take `FC(F)Cn1ncc2ncc(N3CCCC4(CCN(c5cccc(C(F)(F)F)n5)C4)C3)nc21` (centres unmarked) [Compound 34, 7-[1-(2,2-difluoroethyl)-1H-pyrazolo[3,4-b]pyrazin-6-yl]-2-[6-(trifluoromethyl)pyridin-2-yl]-2,7-diazaspiro[4.5]decane]: the EC50 was in the range of 10 to 50 µM. Consider `FC(F)Cn1ncc2ncc(N3CCCC4(C3)CN(c3ccncc3C(F)(F)F)C4)nc21` [Compound 35, 6-[1-(2,2-difluoroethyl)-1H-pyrazolo[3,4-b]pyrazin-6-yl]-2-[3-(trifluoromethyl)pyridin-4-yl]-2,6-diazaspiro[3.5]nonane], for which the EC50 was in the range of 10 to 50 µM. `FC(F)Cn1ncc2ncc(N3CCC4(CCCN(c5cccc(C(F)(F)F)n5)C4)C3)nc21` (centres unmarked) [Compound 36, 2-[1-(2,2-difluoroethyl)-1H-pyrazolo[3,4-b]pyrazin-6-yl]-7-[6-(trifluoromethyl)pyridin-2-yl]-2,7-diazaspiro[4.5]decane] gave an EC50 of 10 to 50 µM.

Turning to `FC(F)Cn1ncc2ncc(N3CCCC4(CN(c5ccc(C(F)(F)F)nc5)C4)C3)nc21` [Compound 37, 6-[1-(2,2-difluoroethyl)-1H-pyrazolo[3,4-b]pyrazin-6-yl]-2-[6-(trifluoromethyl)pyridin-3-yl]-2,6-diazaspiro[3.5]nonane], the 50% effective concentration (EC50) is 10 to 50 µM. Take `FC(F)Cn1ncc2ncc(N3CCCC4(CN(c5cc(C(F)(F)F)ccn5)C4)C3)nc21` [Compound 38, 6-[1-(2,2-difluoroethyl)-1H-pyrazolo[3,4-b]pyrazin-6-yl]-2-[4-(trifluoromethyl)pyridin-2-yl]-2,6-diazaspiro[3.5]nonane]: the EC50 was 10 to 50 µM.

Turning to `FC(F)Cn1ncc2ncc(N3CC4(CCCN(c5ncccc5C(F)(F)F)C4)C3)nc21` [Compound 39, 2-[1-(2,2-difluoroethyl)-1H-pyrazolo[3,4-b]pyrazin-6-yl]-6-[3-(trifluoromethyl)pyridin-2-yl]-2,6-diazaspiro[3.5]nonane], the concentration giving a half-maximal response (EC50) lay within 50 to 100 µM. For `O=C(c1ccc2cc[nH]c2c1)N1CCCC2(CC(Oc3cnccc3C(F)(F)F)C2)C1` (centres unmarked) [Compound 40, 6-(1H-indole-6-carbonyl)-2-{[4-(trifluoromethyl)pyridin-3-yl]oxy}-6-azaspiro[3.5]nonane], the EC50 lay in the range of 50 to 100 µM. Then `FC(F)Cn1ncc2ncc(N3CCCC4(CN(c5ccc(C(F)(F)F)cn5)C4)C3)nc21` [Compound 41, 6-[1-(2,2-difluoroethyl)-1H-pyrazolo[3,4-b]pyrazin-6-yl]-2-[5-(trifluoromethyl)pyridin-2-yl]-2,6-diazaspiro[3.5]nonane], with 50 to 100 µM. Consider `O=C(Cc1csc(-c2ccccc2)n1)N1CCCC2(C1)CN(c1ccccc1)C2` [Compound 57, 2-(2-phenyl-1,3-thiazol-4-yl)-1-{2-phenyl-2,6-diazaspiro[3.5]nonan-6-yl}ethan-1-one], for which the EC50 was in the range of 10 to 50 µM. The figure for `O=C(Cc1csc(-c2ccccc2)n1)N1CC2(CCCN(c3ccccc3)C2)C1` [Compound 58, 2-(2-phenyl-1,3-thiazol-4-yl)-1-{6-phenyl-2,6-diazaspiro[3.5]nonan-2-yl}ethan-1-one] is 10 to 50 µM.

`FC(F)Cn1ncc2ncc(N3CCC4(CC3)CN(c3ccc(C(F)(F)F)nc3)C4)nc21` [Compound 66, 7-[1-(2,2-difluoroethyl)-1H-pyrazolo[3,4-b]pyrazin-6-yl]-2-[6-(trifluoromethyl)pyridin-3-yl]-2,7-diazaspiro[3.5]nonane]: the EC50 is < 10 µM.

Values taken from US20250034170A1, “SMALL MOLECULE MODULATORS OF GLUCOCEREBROSIDASE ACTIVITY AND USES THEREOF” (Vanqua Bio, Inc., priority 2021, published 2025).
